Target: WelP2 (Hapalosiphon welwitschii, UniProt A0A067YX78)
Assay: in vitro prenyl diphosphate synthase assay
Assay type: biochemical
Details: product formed; details in SI Methods

With CC(C)=CCC/C(C)=C/COP(=O)(O)OP(=O)(O)O [GPP] the “in vitro prenyl diphosphate synthase assay” value was “demonstrated that WelP2 is a dedicated geranyl diphosphate synthase to provide GPP (SI Methods)”.
